Measurements taken from article PMC3458020, “High-Throughput Screening for Novel Inhibitors of Neisseria gonorrhoeae Penicillin-Binding Protein 2” (PLoS ONE, 2012).
Where two headings read alike, the source gives them in different places.

Legend:
[1] = target: T1, N. gonorrhoeae PBP 2 (Neisseria gonorrhoeae, UniProt P08149); test: SDS-PAGE-based concentration-response assay with Bocillin-FL (0.01% Triton X-100); format: binding
T1 construct: A soluble construct of wild-type PBP 2; made in house
Protocol: (§1) A soluble construct of wild-type PBP 2 from the penicillin-susceptible strain of N. gonorrhoeae FA19 was expressed and purified as described previously. Bocillin FL™ was obtained from Invitrogen Inc. (Carlsbad, CA). Penicillin G and γ-Globulins from bovine blood (BGG) were purchased from Sigma (St. Louis, MO). Prior to use, all reagents were diluted in an assay buffer comprising 50 mM potassium phosphate, pH 8, and 0.1 mg/ml BGG. The DIVERSet library of 50,080 small lead compounds from ChemBridge Corporation (San Diego, CA) was provided by the MUSC Drug Discovery Core (DDC). Three laboratory strains of N. gonorrhoeae–FA19 [28], penicillin-resistant FA6140 [29], and cephalosporin-intermediate resistant Ceph^I strain 35/02 [30]–were from the laboratory collection of R. Nicholas (UNC-Chapel Hill).
For the FP experiments, 0.01–200 µM of each potential hit was incubated with PBP 2 (1 µM) for 1 h, followed by an additional 30 min incubation with 1 µM Bocillin-FL to detect the residual activity of the labeled penicillin binding. For the SDS-PAGE-based concentration-response experiments, PBP 2 (1 µM) in 50 mM sodium phosphate, 0.01% Triton X-100, pH 8 was incubated with 0.05–1000 µM of a compound for 1 h, followed by additional 15 min incubation with 10 µM Bocillin-FL. The reaction was stopped by mixing each sample with 5 X SDS-loading buffer, followed by boiling for 2 min. The samples were submitted to electrophoresis on 10% Mini-Protean TGX™ SDS-PAGE gels (Bio-Rad, Hercules, CA) to separate bound PBP 2 from free ligand. At least two independent reactions were performed in duplicate at each concentration of an inhibitor. Gels were visualized by UV using a Kodak EDAS 290 imaging system (Scientific Imaging Systems Eastman Kodak, New Haven, CT, USA) and the protein bands were stained with Coomassie to verify equal loading. Densitometry was performed with ImageJ 1.37v program (National Institutes of Health, USA, http://rsb.info.nih.gov/ij/). In both methods, data points were normalized to the maximum value of the fluorescence intensity, which defines complete saturation of PBP 2 by Bocillin-FL in the absence of compound, and IC50 values of the inhibitors were defined as the concentration of a compound at 50% of the residual activity of Bocillin-FL and calculated using GraphPad Prism (see above).

[2] = target: T1, N. gonorrhoeae PBP 2; test: FP-based concentration-response competition assay with Bocillin-FL; format: binding; conditions: 1 µM PBP 2, 1 µM Bocillin-FL
Protocol: as §1
(§2) Measurements of fluorescence and FP were performed on a Spectramax M5 microplate reader (Molecular Devices, Sunnyvale, CA) with excitation and emission wavelengths of 485 nm and 520 nm, respectively, using a 515 nm filter to block residual excitation light and to minimize background interference. Black, shallow 384-well micro plates (ProxiPlate ™ –384 F Plus, PerkinElmer) were used to record data. To minimize the polarization effects from any fluorophore bound to the surface of the well, both excitation and emission data were recorded from the top of the well. Reading time was 100 ms per well. Fluorescence polarization was quantified in millipolarization units (mP) according to the equation, mP = 1000×[(Iv − G.Ih)/(Iv + G.Ih)], where Iv and Ih are parallel and perpendicular emission intensity measurements, respectively, corrected for background (buffer), and G is the instrument-dependent correction coefficient, defined as a ratio of sensitivities of the detection system for vertically and horizontally polarized light. Using the equation G = Iv/Ih and SoftMax® Pro Data Acquisition & Analysis Software (Molecular Devices, Sunnyvale, CA), the G-factor was determined with dilution series of Bocillin-FL-only (free tracer). The assay window (ΔmP) was defined as the difference between protein-tracer sample and free-tracer, i.e. ΔmP = mPs – mPfree, and is a measure of the maximum specific binding.
To evaluate the performance of the assay, steady-state concentration-response experiments were carried out using penicillin G in a competition assay with Bocillin-FL. Penicillin G (0.05–1000 µM) was mixed with 1 µM PBP 2 and 1 µM Bocillin-FL, followed by a 1 hr incubation. The positive (Pc) and negative (Nc) controls were defined as the FP of the Bocillin-FL - protein and of the free tracer, respectively, in the absence of penicillin G. The FP of the Bocillin-FL - protein at 100 µM penicillin G was defined as a displaced tracer control (Dc). Since DMSO was used as a solvent in the compound library, the effect of 10% DMSO on the FP-binding assay was also determined. Data points were normalized to the maximum specific binding, which defines complete saturation of PBP 2 by Bocillin-FL in the absence of penicillin G, and IC50 values were determined using non-linear regression analysis using GraphPad Prism version 4.00 for Windows (GraphPad Software, Inc, San Diego, CA).
For the FP experiments, 0.01–200 µM of each potential hit was incubated with PBP 2 (1 µM) for 1 h, followed by an additional 30 min incubation with 1 µM Bocillin-FL to detect the residual activity of the labeled penicillin binding. For the SDS-PAGE-based concentration-response experiments, PBP 2 (1 µM) in 50 mM sodium phosphate, 0.01% Triton X-100, pH 8 was incubated with 0.05–1000 µM of a compound for 1 h, followed by additional 15 min incubation with 10 µM Bocillin-FL. The reaction was stopped by mixing each sample with 5 X SDS-loading buffer, followed by boiling for 2 min. The samples were submitted to electrophoresis on 10% Mini-Protean TGX™ SDS-PAGE gels (Bio-Rad, Hercules, CA) to separate bound PBP 2 from free ligand. […]

[3] = tested on: N. gonorrhoeae FA6140; test: MIC on GCB agar plates, strain FA6140; format: cell-based; conditions: Neisseria gonorrhoeae
Protocol: (§3) Three strains of N. gonorrhoeae were used in susceptibility tests: 1) FA19, a penicillin-and cephalosporin-susceptible strain; 2) FA6140, a penicillin-resistant but cephalosporin-susceptible strain; and 3) 35/02, a penicillin-resistant and cephalosporin intermediate-resistant strain. The disc diffusion zone method was applied for preliminary testing of “hits” identified in the screening process. For this method, 100 µl of a cell suspension (∼1×10^7 bacteria) was added to 3 ml of GCB top agar (GC Broth containing 0.75% agar) at 50 °C, which was then added to GCB plates and allowed to solidify. Five µl of each compound (5 µg) was added separately to antibiotic susceptibility discs (BBL™, BD, Franklin Lakes, NJ), the discs were placed on top of plates, and the plates were incubated overnight in a 4% CO2 incubator at 37 °C. Those compounds that produced a visible zone of inhibition were then tested for their MICs on agar plates as described. Briefly, GCB agar plates containing increasing amounts of the tested compounds were spotted with 5×10^4 cells. The lowest concentration of the test compound that prevented growth of <5 colonies was defined as the MIC. These experiments were repeated three times, with each experiment producing similar results.

[4] = tested on: N. gonorrhoeae FA19; test: MIC on GCB agar plates, strain FA19; format: cell-based; conditions: Neisseria gonorrhoeae
Protocol: as §3

[5] = target: T1, N. gonorrhoeae PBP 2; test: FP high-throughput screening assay (Bocillin-FL binding to PBP 2); set-up: Inhibition (%) of Bocillin-FL binding to PBP 2: concentration or dose not given beside the values; conditions: four replicates; for Compound (mP) (mean ± SD): FP signal of individual compound with PBP 2 and Bocillin-FL; for Inhibition (%) of Bocillin-FL binding to PBP 2: individual compounds
Protocol: as §1, §2
HTS screening against the ChemBridge DIVERSet library was carried out under the following conditions: 1 µl of each compound (10% DMSO final) in duplicate was pre-incubated with 9 µl of PBP 2 for 1 h at room temperature, followed by additional 30 min incubation with 2 µl Bocillin-FL (0.87 µM PBP2∶ 1 µM Bocillin-FL final). In addition to samples with the compounds, each plate also contained 2 background wells (12 µl buffer only), and at least 4 wells each for Pc, Nc, and Dc reactions. All samples used for background measurements or controls included 10% DMSO. Initial screening was carried out with 10 mM cocktails of 10 compounds (giving a final concentration of 100 µM for each compound). […] The auto fluorescence of each compound was also tested individually.

[6] = tested on: N. gonorrhoeae 35/02; test: MIC on GCB agar plates, strain 35/02; format: cell-based; conditions: Neisseria gonorrhoeae
Protocol: as §3

[7] = target: T2, PBP 2 (Neisseria gonorrhoeae, UniProt P08149); test: Mass spectrometry test for covalent interaction with PBP 2; conditions: data not shown
T2 construct: A soluble construct of wild-type PBP 2; made in house

[8] = IC50, SDS-PAGE assay, 1 µM PBP 2, 10 µM Bocillin-FL, 0.01% Triton X-100
[9] = IC50 measured by SDS-PAGE, 0.01% Triton X-100, 1 µM PBP 2, 10 µM Bocillin-FL, two independent experiments
[10] = IC50 measured by FP, 0.01–200 µM compound, four replicates
[11] = penicillin-resistant, cephalosporin-susceptible strain FA6140, read-out: MIC FA6140
[12] = penicillin- and cephalosporin-susceptible strain FA19, read-out: MIC FA19
[13] = penicillin-resistant, cephalosporin intermediate-resistant strain 35/02, read-out: MIC 35/02

T1 sequence (P08149 44-581 limits assumed): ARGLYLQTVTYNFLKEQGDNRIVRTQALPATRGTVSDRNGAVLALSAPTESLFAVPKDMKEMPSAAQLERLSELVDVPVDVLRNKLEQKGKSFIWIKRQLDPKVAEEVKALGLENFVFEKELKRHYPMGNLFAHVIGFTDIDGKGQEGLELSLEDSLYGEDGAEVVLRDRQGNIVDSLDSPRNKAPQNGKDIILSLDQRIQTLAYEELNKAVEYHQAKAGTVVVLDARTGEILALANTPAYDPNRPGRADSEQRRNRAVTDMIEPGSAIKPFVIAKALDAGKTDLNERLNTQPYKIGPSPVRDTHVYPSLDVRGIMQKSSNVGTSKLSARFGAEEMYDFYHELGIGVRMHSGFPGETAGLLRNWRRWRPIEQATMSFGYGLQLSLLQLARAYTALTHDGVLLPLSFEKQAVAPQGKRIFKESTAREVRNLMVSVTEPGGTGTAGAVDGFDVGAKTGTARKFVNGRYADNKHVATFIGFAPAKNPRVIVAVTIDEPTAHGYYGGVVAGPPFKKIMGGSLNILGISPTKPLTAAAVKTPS
T2 sequence (P08149 44-581 limits assumed): as above

| SMILES | IC50 [1, 8] [µM] | IC50 [1, 9] [µM] | IC50 [2, 10] [µM] | MIC [3, 11] [µg/mL] | MIC [4, 12] [µg/mL] | Compound (mP) (mean ± SD) [5] | Inhibition (%) of Bocillin-FL binding to PBP 2 [5] [%] | MIC [6, 13] [µg/mL] | MIC ([3]; FA6140, read-out: MIC FA6140) [µg/mL] | MIC ([4]; FA19, read-out: MIC FA19) [µg/mL] | MIC ([6]; 35/02, read-out: MIC 35/02) [µg/mL] | IC50 ([1]; IC50, SDS-PAGE assay, same IC50 given in µg/ml) [µM] | MIC ([3]; strain FA6140, MIC given in µM, read-out: MIC FA6140) [µM] | Covalent interaction with PBP 2 (mass of the protein) [7] | MIC ([4]; strain FA19, MIC given in µM, read-out: MIC FA19) [µM] | MIC ([6]; strain 35/02, MIC given in µM, read-out: MIC 35/02) [µM] | IC50 ([2]; IC50 of penicillin G for PBP 2 (FP-based competition assay), with 10% DMSO) [µM] | IC50 ([2]; IC50 of penicillin G for PBP 2 (FP-based competition assay), without DMSO) [µM] |
| --- | --- | --- | --- | --- | --- | --- | --- | --- | --- | --- | --- | --- | --- | --- | --- | --- | --- | --- |
| CCc1ccc(O)c(/N=C/c2cc(I)cc(I)c2O)c1 [Compound 1] | 221 | 221 | 114 | 16 | 4 | 31.4±0.1 | 108.2 | 16 |  |  |  |  |  |  |  |  |  |  |
| O=Cc1cc(Cc2ccccc2)cc([N+](=O)[O-])c1O [Compound 2] | 128 | 128 | 330 | 16 | 4 | 60.4±20.3 | 85.8 | 8 |  |  |  |  |  |  |  |  |  |  |
| Sc1nnc(-c2ccc(Cl)cc2Cl)n1/N=C/C=C/c1ccco1 [Compound 3] | 898 |  | 129 | 32 | 16 | 65.7±12.4 | 81.8 | 32 |  |  |  |  |  |  |  |  |  |  |
| O=S(=O)(Nc1ccc(O)c2ccccc12)c1cccc2ccccc12 [Compound 4] | 50 | 50.2 | 51.4 | 16 | 16 | 35.6±2.1 | 105.4 | 16 |  |  |  |  |  |  |  |  |  |  |
| CCc1ccc(S(=O)(=O)Nc2ccc(O)c3ccccc23)cc1 [Compound 5] | 56 | 56.3 | 52.1 | 16 | 8 | 43.3±0.8 | 97.6 | 16 |  |  |  |  |  |  |  |  |  |  |
| O=c1sc2ccccc2c(O)c1C(c1ccccc1)c1c(O)c2ccccc2sc1=O [Compound 6] | 49 | 49.3 | 50.9 |  |  | 54.6±3.2 | 89.5 |  | 8 | 4 | 8 |  |  |  |  |  |  |  |
| CN1C(=O)/C(=C2\SC(=S)NC2=O)c2cc(Br)ccc21 [Compound 7] | 153 | 153 | 11.3 | 8 | 2 | 45.2±20.2 | 96.6 | 8 |  |  |  | 152 | 23.4 | no increase in mass of the protein was observed | 5.6 | 23.4 |  |  |
| CC1(C)S[C@@H]2[C@H](NC(=O)Cc3ccccc3)C(=O)N2[C@H]1C(=O)O [Penicillin G, reference compound] |  |  |  |  |  |  |  |  |  |  |  |  |  |  |  |  | 1 | 1.4 |
